Measured values: publication PMC11899342, “Novel Triazeneindole Antibiotics: Synthesis and Hit-to-Lead Optimization” (International Journal of Molecular Sciences, 2025)

Test system: MRSA clinical isolates
Assay: Antibiotic susceptibility profile of MRSA clinical isolates (EUCAST breakpoints)
Assay type: cell-based, Staphylococcus aureus
Excerpt: Clinical MRSA isolates with multidrug resistance were obtained from the collection of the Research Institute of Antimicrobial Chemotherapy, Smolensk State Medical Academy.

## CNC(C)C1CCC(N)C(OC2C(N)CC(N)C(OC3OCC(C)(O)C(NC)C3O)C2O)O1 (centres unmarked) [GEN, gentamicin]
MRSA strain 1
  Drug sensibility profile: S
MRSA strain 2
  Drug sensibility profile: R
MRSA strain 3
  Drug sensibility profile: R
MRSA strain 4
  Drug sensibility profile: R
MRSA strain 5
  Drug sensibility profile: R
MRSA strain 6
  Drug sensibility profile: S
MRSA strain 7
  Drug sensibility profile: R
MRSA strain 8
  Drug sensibility profile: R
MRSA strain 9
  Drug sensibility profile: R
MRSA strain 10
  Drug sensibility profile: S
MRSA strain 12
  Drug sensibility profile: S
MRSA strain 13
  Drug sensibility profile: R
MRSA strain 14
  Drug sensibility profile: R
MRSA strain 15
  Drug sensibility profile: S
MRSA strain 16
  Drug sensibility profile: R
MRSA strain 17
  Drug sensibility profile: R
MRSA strain 18
  Drug sensibility profile: R
MRSA strain 21
  Drug sensibility profile: S
MRSA strain 23
  Drug sensibility profile: R
MRSA strain 24
  Drug sensibility profile: R
MRSA strain 25
  Drug sensibility profile: R
MRSA strain 26
  Drug sensibility profile: S S S S S S S
MRSA strain 27
  Drug sensibility profile: R
MRSA strain 28
  Drug sensibility profile: R
MRSA strain 29
  Drug sensibility profile: S
MRSA strain 30
  Drug sensibility profile: S
MRSA strain 31
  Drug sensibility profile: R
MRSA strain 34
  Drug sensibility profile: R
MRSA strain 35
  Drug sensibility profile: R
MRSA strain 36
  Drug sensibility profile: S S S S S S S
MRSA strain 40
  Drug sensibility profile: R
MRSA strain 41
  Drug sensibility profile: R
MRSA strain 42
  Drug sensibility profile: R
MRSA strain 43
  Drug sensibility profile: R
MRSA strain 44
  Drug sensibility profile: R
MRSA strain 45
  Drug sensibility profile: R
MRSA strain 46
  Drug sensibility profile: S
MRSA strain 48
  Drug sensibility profile: R
MRSA strain 49
  Drug sensibility profile: S
MRSA strain 50
  Drug sensibility profile: R
MRSA strain 51
  Drug sensibility profile: R
